The text below walks through data of patent publication US20250163052A1, “cGAS INHIBITORS AND USES THEREOF” (Cornell University, priority 2022, published 2025).

Data set [1] has as its target m-cGAS (Mus musculus, UniProt Q8C6L5). The data set is described as follows: Cell-free mouse cGAS enzyme inhibition assay (ATP depletion, Kinase-Glo Max). The format is biochemical. The conditions noted are these: 1 h; for inhibition at 1 µM: read-out: m-cGAS, conc. 1 μM; for inhibition at 10 µM: read-out: m-cGAS, conc. 10 μM. As to the method: (§1) Cell-free mouse and human cGAS enzyme inhibition assay (Table 2). Activity of all compounds (in Table 1) against m-cGAS (30 nM) and or h-cGAS, (100 nM) was determined by measuring the conversion of ATP and GTP (100 μM each) to cGAMP in the presence of dsDNA (5 ug/mL) in a reaction buffer composed of Tris-HCl (20 mM, pH7.4), NaCl (150 mM), MnCl2 (0.2 mM, h-cGAS) or MgCl2 (5 mM, m-cGAS) and Tween-20 (0.01%), and the remaining ATP concentration using Kinase-Glo®Max Luminescent Kinase Assay (Promega, Madison, WI), as described (Lama, et. al., 2019). Briefly, 10 μl of a master mix of 0.4 mM ATP, 0.4 mM GTP, 0.02 mg/mL dsDNA in the reaction buffer supplemented with 2 mM DTT was added to reaction wells containing TDI-6570 or TDI-8246 (2× of the desired concentration) in the same buffer ([…]) using a Thermo 8-channel Multidrop Combi dispenser. Next, 10 μl of a 4×m-cGAS (0.120 μM) or h-cGAS (0.4 μM) solution in the reaction buffer supplemented with 2 mM DTT was added to appropriate wells. Similar sets of reactions without cGAS or the inhibitor was set by adding the buffer alone. The reactions with the plates sealed were incubated at 37° C. (1 hour for m-cGAS and 3 hours for h-cGAS) and stopped by addition of 40 μl of the Kinase-Glo®Max. The luminescence was recorded in relative light units (RLUs) using a Biotek Synergy H1 Hybrid plate reader (BioTek, Winooski, VT). […] All reactions were run in triplicates and calculated using GraphPad Prism 9. The values represent mean IC50±S.D.
On the technique in general: Kinase-Glo reads ATP consumption through a luciferase reaction.

Data set [2] deals with h-cGAS (Homo sapiens, UniProt Q8N884). Description: Cell-free human cGAS enzyme inhibition assay (ATP depletion, Kinase-Glo Max). The format is biochemical. The conditions noted are these: 3 h; for inhibition at 10 µM: read-out: h-cGAS, conc. 10 μM; for inhibition at 1 µM: read-out: h-cGAS, conc. 1 μM. As to the method: as §1
h-cGAS, sequence (Q8N884 whole entry): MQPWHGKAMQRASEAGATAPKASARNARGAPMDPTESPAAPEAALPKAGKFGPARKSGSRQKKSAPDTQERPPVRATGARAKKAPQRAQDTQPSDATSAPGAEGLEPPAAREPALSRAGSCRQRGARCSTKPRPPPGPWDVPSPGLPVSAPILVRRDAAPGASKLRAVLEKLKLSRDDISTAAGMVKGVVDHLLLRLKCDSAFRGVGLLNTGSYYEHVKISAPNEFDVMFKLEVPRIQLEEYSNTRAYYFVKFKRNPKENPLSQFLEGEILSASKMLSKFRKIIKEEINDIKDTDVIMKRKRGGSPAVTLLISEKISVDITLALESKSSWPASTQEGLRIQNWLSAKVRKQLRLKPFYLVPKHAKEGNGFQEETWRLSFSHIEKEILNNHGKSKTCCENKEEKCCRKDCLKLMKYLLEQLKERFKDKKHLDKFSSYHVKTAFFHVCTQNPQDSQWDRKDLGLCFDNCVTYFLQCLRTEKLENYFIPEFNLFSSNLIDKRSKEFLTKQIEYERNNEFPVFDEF
Data set [3] concerns IFNB. Description: THP1-Dual cells transfected with DNA, Ifnb expression (Quantiluc). The conditions noted are these: Homo sapiens; for inhibition at 10 µM: THP-1, 10 μM; for inhibition at 30 µM: THP-1, 30 μM. The format is cell-based. As to the method: (§2) Evaluation of active cGAS inhibitors in THP1 cells (Table 3). Cellular activity of all compounds (in Table 3) was determined using THP1-Dual™ cells as described (Lama et. al., 2019). THP1-Dual™ cells (Invivogen) (50000 cells in 100 μl media) were seeded into each well of a 96-well plate and treated with compounds at various dilution for 4 hours. Subsequently, cells were transfected with DNA (2 ug/ml) and lipofectamine and incubate the cells were incubated overnight. Ifnb expression was measured in cell supernatant using Quantiluc, nfkb expression was determined using Quantiblue, and cell viability using Promega® CellTiter-Glo®.

Data set [4] deals with THP1 cells. Description: THP1-Dual cells, cell viability (CellTiter-Glo). The format is cell-based. As to the method: as §2

m-cGAS, sequence (Q8C6L5 whole entry): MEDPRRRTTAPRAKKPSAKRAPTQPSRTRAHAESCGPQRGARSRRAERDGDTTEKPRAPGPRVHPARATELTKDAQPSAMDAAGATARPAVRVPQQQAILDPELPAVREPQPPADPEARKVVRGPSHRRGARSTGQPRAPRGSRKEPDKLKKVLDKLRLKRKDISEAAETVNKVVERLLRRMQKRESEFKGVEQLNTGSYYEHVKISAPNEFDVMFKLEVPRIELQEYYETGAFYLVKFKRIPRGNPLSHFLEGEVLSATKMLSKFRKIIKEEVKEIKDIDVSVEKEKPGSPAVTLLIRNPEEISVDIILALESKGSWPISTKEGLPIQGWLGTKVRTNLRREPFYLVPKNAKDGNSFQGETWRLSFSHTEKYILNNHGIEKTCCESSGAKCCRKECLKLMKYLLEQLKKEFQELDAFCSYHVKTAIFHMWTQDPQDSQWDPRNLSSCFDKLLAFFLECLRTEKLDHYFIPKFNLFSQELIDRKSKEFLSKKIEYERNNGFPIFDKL

`O=C(CO)N1CCc2c(sc3c(Cl)c(Cl)cc(-c4cncnc4)c23)C1` [Compound 65]: in data set [1], the inhibition at 1 µM is 0 to 24% and the inhibition at 10 µM was 75 to 100%. In addition, in data set [2], the inhibition at 10 µM lay within 25 to 49%.
For the compound `O=C(CO)N1CCc2nc3c(Cl)c(Cl)cc(-c4cncnc4)n3c2C1` [Compound 98], the inhibition at 10 µM in data set [1] and in data set [2] was 0 to 24% in each case.
As for `Nc1ccc(-c2cc(Cl)c(Cl)c3sc4c(c23)CN(C(=O)CO)CC4)cn1` [Compound 49], the inhibition at 10 µM fell in the range of 25 to 49% in data set [1] and 0 to 24% in data set [2].
Regarding `Cn1cc(-c2cc(Cl)c(Cl)c3oc4c(c23)CCN(C(=O)CN)C4)cn1` [Compound 40], in data set [3], the inhibition at 10 µM fell in the range of 75 to 100% and the inhibition at 30 µM was in the range of 75 to 100%. For the same compound, in data set [2], the inhibition at 1 µM lay within 50 to 74% and the inhibition at 10 µM fell in the range of 75 to 100%. Further, in data set [4], the “Cell viability 10 μM” value is “+++ (+, ++, and +++ mean the compound respectively shows 25-49%; 50-74%; or 75-100% viability to cells)”; the “Cell viability 30 μM” value was “− (Cell viability <24%, in THP1 cells is expressed as “−”)”.
For the compound `Cn1c2c(c3c(-c4ccn[nH]4)cc(Cl)c(Cl)c31)CN(C(=O)C1CCCN1)CC2` (stereo not shown) [Compound 18], the inhibition at 10 µM in data set [1] and in data set [2] was 0 to 24% throughout.
As for `Cn1c2c(c3c(-c4ccc(O)nc4)cc(Cl)c(F)c31)CN(C(=O)CO)CC2` [Compound 2], the inhibition at 10 µM in data set [1] and in data set [2] was 0 to 24% in each case.
Consider `O=C(CO)N1CCc2c(sc3c(Cl)c(Cl)cc(-c4cncs4)c23)C1` [Compound 70], for which the inhibition at 10 µM in data set [2] lay in the range of 0 to 24%.
On to `O=C(CO)N1CCc2sc3c(Cl)c(Cl)cc(-c4cncnc4)c3c2C1` [Compound 47], for which, in data set [1], the inhibition at 1 µM fell in the range of 0 to 24% and the inhibition at 10 µM lay in the range of 50 to 74%. Further, in data set [2], the inhibition at 1 µM fell in the range of 0 to 24% and the inhibition at 10 µM lay in the range of 50 to 74%.
With `O=C(CO)N1CCc2c(sc3c(Cl)c(Cl)cc(-c4cc[nH]n4)c23)C1` [Compound 61], the inhibition at 10 µM in data set [2] is 25 to 49%.
Consider `O=C(CO)N1CCc2oc3c(Cl)c(Cl)cc(-c4nccs4)c3c2C1` [Compound 31], for which, in data set [3], the inhibition at 10 µM is 50 to 74% and the inhibition at 30 µM lay in the range of 50 to 74%. In data set [2], the inhibition at 1 µM fell in the range of 50 to 74% and the inhibition at 10 µM is 75 to 100%. In addition, in data set [4], the “Cell viability 10 μM” value was “+++ (+, ++, and +++ mean the compound respectively shows 25-49%; 50-74%; or 75-100% viability to cells)”; the “Cell viability 30 μM” value is “+++ (+, ++, and +++ mean the compound respectively shows 25-49%; 50-74%; or 75-100% viability to cells)”.
In data set [3], `CC(C)(N)C(=O)N1CCc2c(sc3c(Cl)c(Cl)cc(-c4cn[nH]c4)c23)C1` [Compound 85] came in with an inhibition at 10 µM of 75 to 100% and an inhibition at 30 µM of 75 to 100%. Further, in data set [2], the inhibition at 1 µM is 0 to 24% and the inhibition at 10 µM was in the range of 50 to 74%. In addition, in data set [4], the “Cell viability 10 μM” value is “+ (+, ++, and +++ mean the compound respectively shows 25-49%; 50-74%; or 75-100% viability to cells)”; the “Cell viability 30 μM” value was “− (Cell viability <24%, in THP1 cells is expressed as “−”)”.
Take `O=C(CO)N1CCc2c(sc3c(Cl)c(Cl)ccc23)C1` [Compound 58]: the inhibition at 10 µM in data set [1] lay in the range of 75 to 100%; in data set [2], 50 to 74%. In addition, the inhibition at 1 µM in data set [2] fell in the range of 0 to 24%.
Regarding `O=C(CO)N1CCc2c(sc3c(Cl)c(Cl)cc(-c4ccncc4)c23)C1` [Compound 69], the inhibition at 10 µM in data set [2] lay within 0 to 24%.
Consider `O=C(CO)N1CCc2oc3c(Cl)c(Cl)cc(-c4cn[nH]c4)c3c2C1` [Compound 29], for which, in data set [3], the inhibition at 10 µM was 50 to 74% and the inhibition at 30 µM is 75 to 100%. Further, in data set [2], the inhibition at 1 µM lay in the range of 25 to 49% and the inhibition at 10 µM is 75 to 100%. Further, in data set [4], the “Cell viability 10 μM” value was “+++ (+, ++, and +++ mean the compound respectively shows 25-49%; 50-74%; or 75-100% viability to cells)”; the “Cell viability 30 μM” value was “+++ (+, ++, and +++ mean the compound respectively shows 25-49%; 50-74%; or 75-100% viability to cells)”.
In the case of `Cn1c2c(c3c(-c4ccn[nH]4)cc(Cl)c(Cl)c31)CN(C(=O)C1CCCN1C(=O)OC(C)(C)C)CC2` (stereo not shown) [Compound 15], the inhibition at 10 µM in data set [1] and in data set [2] was 0 to 24% each time.
Regarding `O=C(CO)N1CCc2c(sc3c(Cl)c(Cl)cc(-c4ccco4)c23)C1` [Compound 64], in data set [2], the inhibition at 1 µM was in the range of 0 to 24% and the inhibition at 10 µM was 25 to 49%.
With `CNc1ccc(-c2cc(Cl)c(Cl)c3sc4c(c23)CCN(C(=O)CO)C4)cn1` [Compound 66], the inhibition at 10 µM in data set [2] was in the range of 0 to 24%.
For `CC(C)(N)C(=O)N1CCc2oc3c(Cl)c(Cl)cc(-c4cc[nH]n4)c3c2C1` [Compound 34], in data set [3], the inhibition at 10 µM was 75 to 100% and the inhibition at 30 µM is 75 to 100%. In data set [2], the inhibition at 1 µM lay within 25 to 49% and the inhibition at 10 µM is 50 to 74%. In data set [4], the “Cell viability 10 μM” value was “+++ (+, ++, and +++ mean the compound respectively shows 25-49%; 50-74%; or 75-100% viability to cells)”; the “Cell viability 30 μM” value was “− (Cell viability <24%, in THP1 cells is expressed as “−”)”.
In data set [3], `NCC(=O)N1CCc2c(oc3c(Cl)c(Cl)cc(-c4cncnc4)c23)C1` [Compound 39] yielded an inhibition at 10 µM of 25 to 49% and an inhibition at 30 µM of 75 to 100%. In addition, in data set [2], the inhibition at 1 µM lay in the range of 0 to 24% and the inhibition at 10 µM fell in the range of 75 to 100%. In data set [4], the “Cell viability 10 μM” value is “+++ (+, ++, and +++ mean the compound respectively shows 25-49%; 50-74%; or 75-100% viability to cells)”; the “Cell viability 30 μM” value is “+++ (+, ++, and +++ mean the compound respectively shows 25-49%; 50-74%; or 75-100% viability to cells)”.
With `O=C(CO)N1CCc2c(sc3c(Cl)c(Cl)cc(-c4nccs4)c23)C1` [Compound 67], in data set [2], the inhibition at 10 µM fell in the range of 25 to 49%.
In data set [3], `O=C(CO)N1CCc2oc3c(Cl)c(Cl)cc(-c4ccco4)c3c2C1` [Compound 30] yielded an inhibition at 10 µM below 24% and an inhibition at 30 µM of 25 to 49%. Besides, in data set [2], the inhibition at 1 µM fell in the range of 0 to 24% and the inhibition at 10 µM fell in the range of 50 to 74%. In data set [4], the “Cell viability 10 μM” value was “+++ (+, ++, and +++ mean the compound respectively shows 25-49%; 50-74%; or 75-100% viability to cells)”; the “Cell viability 30 μM” value is “+++ (+, ++, and +++ mean the compound respectively shows 25-49%; 50-74%; or 75-100% viability to cells)”.
With `Cn1ccc(-c2cc(Cl)c(Cl)c3oc4c(c23)CCN(C(=O)CN)C4)n1` [Compound 41], in data set [3], the inhibition at 10 µM lay within 50 to 74% and the inhibition at 30 µM lay within 75 to 100%. For the same compound, in data set [2], the inhibition at 1 µM fell in the range of 50 to 74% and the inhibition at 10 µM fell in the range of 75 to 100%. Besides, in data set [4], the “Cell viability 10 μM” value was “+++ (+, ++, and +++ mean the compound respectively shows 25-49%; 50-74%; or 75-100% viability to cells)”; the “Cell viability 30 μM” value is recorded as “− (Cell viability <24%, in THP1 cells is expressed as “−”)”.
With `O=C(CO)N1CCc2c(sc3c(Cl)c(Cl)cc(-c4cccnc4)c23)C1` [Compound 68], the inhibition at 10 µM in data set [2] was in the range of 0 to 24%.
In data set [3], `O=C(CO)N1CCc2oc3c(Cl)c(Cl)cc(-c4cc[nH]n4)c3c2C1` [Compound 28] showed an inhibition at 10 µM of 50 to 74% and an inhibition at 30 µM of 50 to 74%. Also, in data set [2], the inhibition at 1 µM was in the range of 25 to 49% and the inhibition at 10 µM was 50 to 74%. Besides, in data set [4], the “Cell viability 10 μM” value was “+++ (+, ++, and +++ mean the compound respectively shows 25-49%; 50-74%; or 75-100% viability to cells)”; the “Cell viability 30 μM” value is “+++ (+, ++, and +++ mean the compound respectively shows 25-49%; 50-74%; or 75-100% viability to cells)”.
